In ChEMBL document CHEMBL6177950, “Discovery of potent and selective CDK2 inhibitors with high safety and favorable bioavailability for the treatment of cancer” (Eur J Med Chem, 2025):
Calls of active or inactive are those of the source. No cut-off for these calls is given here.

Key:
OVCAR-3 [1] = experiment: Inhibition of colony formation in CCNE1-amplified human OVCAR-3 incubated for 2 weeks by crystal violet staining based inverted microscopic analysis; type: functional, cell-based; details: dose 1-4 µM
[2] = Acute toxicity in ICR mouse assessed as effect on liver weight at 1000 to 2500 mg/kg, po administered once for 14 days; type: organism-based; details: in vivo, 336 h, dose 1000-2500 mg/kg, time 14 day
[3] = MRT (0 to infinity) in Sprague-Dawley rat at 2 mg/kg, iv by LC-MS/MS analysis; type: ADME, organism-based; details: in vivo
OVCAR-3 [4] = experiment: Induction of cell cycle arrest in human OVCAR-3 cells assessed as inhibition of RB phosphorylation level incubated for 24 hrs by Western blot analysis; type: functional, cell-based
[5] = C0 in Sprague-Dawley rat at 2 mg/kg, iv by LC-MS/MS analysis; type: ADME, organism-based; details: in vivo
[6] = AUC (0 to infinity) in Sprague-Dawley rat at 20 mg/kg, po by LC-MS/MS analysis; type: ADME, organism-based; details: in vivo
[7] = Acute toxicity in ICR mouse assessed as effect on lung weight at 1000 to 2500 mg/kg, po administered once for 14 days; type: organism-based; details: in vivo, 336 h, dose 1000-2500 mg/kg, time 14 day
OVCAR-3 [8] = experiment: Induction of apoptosis in human OVCAR-3 cells assessed as early apoptotic cells at 1 uM incubated for 24 hrs by Annexin V-FITC/PI staining based flow cytometry analysis (reference value: 1.25%); type: functional
OVCAR-3 [9] = experiment: Induction of cell senescence in human OVCAR-3 cells assessed as increase in beta galactosidase activity incubated for 24 hrs by staining based inverted microscopic analysis; type: functional; details: dose 1-2 µM
[10] = Acute toxicity in ICR mouse assessed as pathological changes in lung at 1000 to 2500 mg/kg, po administered once for 14 days by H and E staining analysis; type: organism-based; details: in vivo, 336 h, dose 1000-2500 mg/kg, time 14 day
OVCAR-3 [11] = experiment: Induction of cell cycle arrest in human OVCAR-3 cells assessed as accumulation of cells at G1 phase at 2 uM incubated for 24 hrs by flow cytometry analysis (reference value: 67.73%); type: functional
[12] = biological target: Cyclin-dependent kinase 2/cyclin E1 (Homo sapiens, UniProt P24941); experiment: Inhibition of CDK2/Cyclin E1 (unknown origin) pre-incubated for 10 mins followed by ATP/substrate addition and measured after 60 mins by ADP-Glo assay; type: protein-complex assay
OVCAR-3 [13] = experiment: Induction of apoptosis in human OVCAR-3 cells incubated for 24 hrs by Annexin V-FITC/PI staining based flow cytometry analysis; type: functional, cell-based; details: dose 1-2 µM
[14] = Half life in Sprague-Dawley rat at 2 mg/kg, iv by LC-MS/MS analysis; type: ADME, organism-based; details: in vivo
OVCAR-3 [15] = experiment: Induction of cell cycle arrest in human OVCAR-3 cells assessed as accumulation of cells at G2 phase at 1 uM incubated for 24 hrs by flow cytometry analysis (reference value: 21.77%); type: functional
[16] = Acute toxicity in ICR mouse assessed as animal death at 1000 to 2500 mg/kg, po administered once for 14 days; type: organism-based; details: in vivo, 336 h, dose 1000-2500 mg/kg, time 14 day
OVCAR-3 [17] = experiment: Induction of apoptosis in human OVCAR-3 cells assessed as early apoptotic cells at 2 uM incubated for 24 hrs by Annexin V-FITC/PI staining based flow cytometry analysis (reference value: 1.25%); type: functional
[18] = MRT (0 to infinity) in Sprague-Dawley rat at 20 mg/kg, po by LC-MS/MS analysis; type: ADME, organism-based; details: in vivo
OVCAR-3 [19] = experiment: Induction of apoptosis in human OVCAR-3 cells assessed as necrotic cells at 2 uM incubated for 24 hrs by Annexin V-FITC/PI staining based flow cytometry analysis (reference value: 0.87%); type: functional
MCF7 = experiment: Antiproliferative activity against wild type human MCF7 cells assessed as cell growth inhibition; type: functional, cell-based
[20] = AUC (0 to infinity) in Sprague-Dawley rat at 2 mg/kg, iv by LC-MS/MS analysis; type: ADME, organism-based; details: in vivo
CDK1/Cyclin A = CDK1/Cyclin A (Homo sapiens, UniProt P06493); experiment: Inhibition of CDK1/Cyclin A2 (unknown origin) pre-incubated for 10 mins followed by ATP/substrate addition and measured after 60 mins by ADP-Glo assay; type: protein-complex assay
Sequence of CDK1/Cyclin A (P06493 whole entry): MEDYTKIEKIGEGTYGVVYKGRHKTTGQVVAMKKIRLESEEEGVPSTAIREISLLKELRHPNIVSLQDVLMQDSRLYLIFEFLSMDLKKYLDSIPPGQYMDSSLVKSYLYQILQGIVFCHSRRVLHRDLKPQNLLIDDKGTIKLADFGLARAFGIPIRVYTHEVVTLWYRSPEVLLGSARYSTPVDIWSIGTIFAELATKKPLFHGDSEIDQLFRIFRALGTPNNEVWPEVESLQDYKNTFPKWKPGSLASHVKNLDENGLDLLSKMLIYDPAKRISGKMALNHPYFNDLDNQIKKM
Sequence of CDK1/Cyclin A (P20248 whole entry, further chain): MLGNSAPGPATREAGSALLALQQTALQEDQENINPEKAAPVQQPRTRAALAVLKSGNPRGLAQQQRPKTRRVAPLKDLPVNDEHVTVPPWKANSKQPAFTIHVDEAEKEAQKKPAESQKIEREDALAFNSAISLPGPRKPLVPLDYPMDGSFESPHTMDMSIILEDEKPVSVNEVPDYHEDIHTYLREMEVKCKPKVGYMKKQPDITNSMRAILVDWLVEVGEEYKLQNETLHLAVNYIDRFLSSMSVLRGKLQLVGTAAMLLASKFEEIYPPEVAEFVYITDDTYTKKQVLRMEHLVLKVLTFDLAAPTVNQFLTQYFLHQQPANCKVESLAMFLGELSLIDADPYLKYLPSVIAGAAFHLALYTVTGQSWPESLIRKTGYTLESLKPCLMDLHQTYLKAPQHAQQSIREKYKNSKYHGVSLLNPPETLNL

CCC(C)n1cc(-c2nc(NC3CCN(S(=O)(=O)C4CC4)CC3)ncc2F)cc(F)c1=O (configuration not stated)
inhibition (OVCAR-3 [1]): Dose-dependent-effect
Activity [2]: Non-toxic
MRT inf [3]: 49.2 min
Activity (OVCAR-3 [4]): Active
C0 [5]: 1670 ng/mL
AUC(0-inf) [6]: 11800 ng·h/mL
Activity [7]: Non-toxic
Activity (OVCAR-3 [8]): 2.65%
Activity (OVCAR-3 [9]): Dose-dependent-effect
Activity [10]: Non-toxic
Activity (OVCAR-3 [11]): 96.27%
IC50 [12]: 0.9 nM
Activity (OVCAR-3 [13]): Dose-dependent-effect
half-life [14]: 55.8 min
Activity (OVCAR-3 [15]): 4.3%
Activity [16]: Non-toxic
Activity (OVCAR-3 [17]): 3.81%
MRT inf [18]: 402 min
Activity (OVCAR-3 [19]): 3.74%
IC50 (MCF7): 186 nM
AUC(0-inf) [20]: 1480 ng·h/mL
IC50 (CDK1/Cyclin A): 15 nM
